Laboratory results reported in patent publication US20220106328A1, “HETEROCYCLIC COMPOUNDS” (Hoffmann-La Roche Inc., priority 2019, published 2022).

Each compound was assayed against T1, MAGL (Homo sapiens, UniProt Q99685) (assay: 2-AG assay (MAGL inhibitory activity; hydrolysis of 2-arachidonoylglycerol to arachidonic acid followed by mass spectrometry)). Conditions: 8 μM 2-arachidonoylglycerol, 15 min pre-incubation, 30 min incubation at rt, RapidFire MS read-out.
T1 sequence (Q99685 1-303): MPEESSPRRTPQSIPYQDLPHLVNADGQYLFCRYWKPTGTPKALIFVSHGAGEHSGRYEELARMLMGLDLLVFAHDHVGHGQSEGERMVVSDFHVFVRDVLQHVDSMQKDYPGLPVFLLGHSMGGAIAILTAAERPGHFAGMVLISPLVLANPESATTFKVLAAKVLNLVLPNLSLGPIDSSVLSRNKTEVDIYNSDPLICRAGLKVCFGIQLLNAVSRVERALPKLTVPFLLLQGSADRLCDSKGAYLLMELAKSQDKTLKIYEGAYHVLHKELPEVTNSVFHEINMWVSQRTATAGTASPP
Format: biochemical
Description: Compounds were profiled for MAGL inhibitory activity by determining the enzymatic activity by following the hydrolysis of the natural substrate 2-arachidonoylglycerol resulting in arachidonic acid, which can be followed by mass spectrometry. This assay is hereinafter abbreviated “2-AG assay”.
A C18 SPE cartridge (G9205A) was used in an ACN/water liquid setup. […] The activity of the compounds was calculated based on the ratio of intensities [arachidonic acid/d8-arachidonic acid].

Row | IC50 [nM] | SMILES
1 | 95 | O=C1COC2CCN(C(=O)N3CC(c4ccc(C5(C(F)(F)F)CC5)cc4)C3)CC2N1 (single isomer, unassigned) [Example 3, (+)- or (−)-trans-6-[3-[4-[1-(Trifluoromethyl)cyclopropyl]phenyl]azetidine-1-carbonyl]-4,4a,5,7,8,8a-hexahydropyrido[4,3-b][1,4]oxazin-3-one]
2 | 15 | O=C1COC2CCN(C(=O)N3CC(c4ccc(C5(C(F)(F)F)CC5)cc4)C3)CC2N1 (single isomer, unassigned) [Example 4, (−)- or (+)-trans-6-[3-[4-[1-(Trifluoromethyl)cyclopropyl]phenyl]azetidine-1-carbonyl]-4,4a,5,7,8,8a-hexahydropyrido[4,3-b][1,4]oxazin-3-one]
3 | 424 | O=C1CO[C@@H]2CCN(C(=O)N3CC(c4ccc(OC(F)(F)F)c(Cl)c4)C3)C[C@H]2N1 (single isomer, unassigned) [Example 7, (+)- or (−)-trans-6-[3-[3-Chloro-4-(trifluoromethoxy)phenyl]azetidine-1-carbonyl]-4,4a,5,7,8,8a-hexahydropyrido[4,3-b][1,4]oxazin-3-one]
4 | 56 | O=C1CO[C@H]2CCN(C(=O)N3CC(c4ccc(OC(F)(F)F)c(Cl)c4)C3)C[C@@H]2N1 (single isomer, unassigned) [Example 8, (−)- or (+)-trans-6-[3-[3-Chloro-4-(trifluoromethoxy)phenyl]azetidine-1-carbonyl]-4,4a,5,7,8,8a-hexahydropyrido[4,3-b][1,4]oxazin-3-one]
5 | 357 | O=C1CO[C@@H]2CCN(C(=O)N3CC(c4ccc(CC(F)(F)F)cc4)C3)C[C@H]2N1 (single isomer, unassigned) [Example 15, (+)- or (−)-trans-6-[3-[4-(2,2,2-Trifluoroethyl)phenyl]azetidine-1-carbonyl]-4,4a,5,7,8,8a-hexahydropyrido[4,3-b][1,4]oxazin-3-one]
6 | 58 | O=C1CO[C@H]2CCN(C(=O)N3CC(c4ccc(CC(F)(F)F)cc4)C3)C[C@@H]2N1 (single isomer, unassigned) [Example 16, (−)- or (+)-trans-6-[3-[4-(2,2,2-Trifluoroethyl)phenyl]azetidine-1-carbonyl]-4,4a,5,7,8,8a-hexahydropyrido[4,3-b][1,4]oxazin-3-one]
7 | 220 | O=C1CO[C@@H]2CCN(C(=O)N3CC(OCc4ccc(C(F)(F)F)cc4Cl)C3)C[C@H]2N1 (single isomer, unassigned) [Example 20, (+)- or (−)-trans-6-[3-[[2-Chloro-4-(trifluoromethyl)phenyl]methoxy]azetidine-1-carbonyl]-4,4a,5,7,8,8a-hexahydropyrido[4,3-b][1,4]oxazin-3-one]
8 | 78 | O=C1CO[C@H]2CCN(C(=O)N3CC(OCc4ccc(C(F)(F)F)cc4Cl)C3)C[C@@H]2N1 (single isomer, unassigned) [Example 21, (−)- or (+)-trans-6-[3-[[2-Chloro-4-(trifluoromethyl)phenyl]methoxy]azetidine-1-carbonyl]-4,4a,5,7,8,8a-hexahydropyrido[4,3-b][1,4]oxazin-3-one]
9 | 920 | O=C1CO[C@@H]2CCN(C(=O)N3CC(OCc4ccc(OC(F)(F)F)cc4)C3)C[C@H]2N1 (single isomer, unassigned) [Example 22, (+)- or (−)-trans-6-[3-[[4-(Trifluoromethoxy)phenyl]methoxy]azetidine-1-carbonyl]-4,4a,5,7,8,8a-hexahydropyrido[4,3-b][1,4]oxazin-3-one]
10 | 411 | O=C1CO[C@H]2CCN(C(=O)N3CC(OCc4ccc(OC(F)(F)F)cc4)C3)C[C@@H]2N1 (single isomer, unassigned) [Example 23, (−)- or (+)-trans-6-[3-[[4-(Trifluoromethoxy)phenyl]methoxy]azetidine-1-carbonyl]-4,4a,5,7,8,8a-hexahydropyrido[4,3-b][1,4]oxazin-3-one]

More lines, now with the values behind:

Row | SMILES | IC50 [nM]
11 | O=C(N1CC(OCc2ccc(C(F)(F)F)cc2F)C1)N1CC[C@H]2OCCN[C@@H]2C1 (racemic) [Example 31, [3-[[2-Fluoro-4-(trifluoromethyl)phenyl]methoxy]azetidin-1-yl]-[rac-(4aR,8aR)-2,3,4,4a,5,7,8,8a-octahydropyrido[4,3-b][1,4]oxazin-6-yl]methanone] | 2010
12 | CC(C)(C)c1ccc(C2CN(C(=O)N3CCC4OCC(=O)NC4C3)C2)cc1 (single isomer, unassigned) [Example 1, (+)- or (−)-trans-6-[3-(4-tert-Butylphenyl)azetidine-1-carbonyl]-4,4a,5,7,8,8a-hexahydropyrido[4,3-b][1,4]oxazin-3-one] | 235
13 | CC(C)(C)c1ccc(C2CN(C(=O)N3CCC4OCC(=O)NC4C3)C2)cc1 (single isomer, unassigned) [Example 2, (−)- or (+)-trans-6-[3-(4-tert-Butylphenyl)azetidine-1-carbonyl]-4,4a,5,7,8,8a-hexahydropyrido[4,3-b][1,4]oxazin-3-one] | 39
14 | O=C1COC2CCN(C(=O)N3CC(OCc4ccc(C(F)(F)F)cc4F)C3)CC2N1 (single isomer, unassigned) [Example 5, (+)- or (−)-trans-6-[3-[[2-Fluoro-4-(trifluoromethyl)phenyl]methoxy]azetidine-1-carbonyl]-4,4a,5,7,8,8a-hexahydropyrido[4,3-b][1,4]oxazin-3-one] | 327
15 | O=C1COC2CCN(C(=O)N3CC(OCc4ccc(C(F)(F)F)cc4F)C3)CC2N1 (single isomer, unassigned) [Example 6, (−)- or (+)-trans-6-[3-[[2-Fluoro-4-(trifluoromethyl)phenyl]methoxy]azetidine-1-carbonyl]-4,4a,5,7,8,8a-hexahydropyrido[4,3-b][1,4]oxazin-3-one] | 143
16 | O=C1CO[C@@H]2CCN(C(=O)N3CC(c4ccc(Oc5ccccc5)cc4)C3)C[C@H]2N1 (single isomer, unassigned) [Example 11, (+)- or (−)-trans-6-[3-(4-Phenoxyphenyl)azetidine-1-carbonyl]-4,4a,5,7,8,8a-hexahydropyrido[4,3-b][1,4]oxazin-3-one] | 47
17 | O=C1CO[C@H]2CCN(C(=O)N3CC(c4ccc(Oc5ccccc5)cc4)C3)C[C@@H]2N1 (single isomer, unassigned) [Example 12, (−)- or (+)-trans-6-[3-(4-Phenoxyphenyl)azetidine-1-carbonyl]-4,4a,5,7,8,8a-hexahydropyrido[4,3-b][1,4]oxazin-3-one] | 7
18 | O=C1CO[C@@H]2CCN(C(=O)N3CC(c4ccc(-c5ccc(F)cc5F)cc4)C3)C[C@H]2N1 (single isomer, unassigned) [Example 13, (+)- or (−)-trans-6-[3-[4-(2,4-Difluorophenyl)phenyl]azetidine-1-carbonyl]-4,4a,5,7,8,8a-hexahydropyrido[4,3-b][1,4]oxazin-3-one] | 93
19 | O=C1CO[C@H]2CCN(C(=O)N3CC(c4ccc(-c5ccc(F)cc5F)cc4)C3)C[C@@H]2N1 (single isomer, unassigned) [Example 14, (−)- or (+)-trans-6-[3-[4-(2,4-Difluorophenyl)phenyl]azetidine-1-carbonyl]-4,4a,5,7,8,8a-hexahydropyrido[4,3-b][1,4]oxazin-3-one] | 28
20 | O=C1CO[C@@H]2CCN(C(=O)N3CC4(CC(Cc5ccc(F)cc5F)C4)C3)C[C@H]2N1 (single isomer, unassigned) [Example 17, (+)- or (−)-trans-6-[6-[(2,4-Difluorophenyl)methyl]-2-azaspiro[3.3]heptane-2-carbonyl]-4,4a,5,7,8,8a-hexahydropyrido[4,3-b][1,4]oxazin-3-one] | 24
21 | O=C1CO[C@H]2CCN(C(=O)N3CC4(CC(Cc5ccc(F)cc5F)C4)C3)C[C@@H]2N1 (single isomer, unassigned) [Example 18, (−)- or (+)-trans-6-[6-[(2,4-Difluorophenyl)methyl]-2-azaspiro[3.3]heptane-2-carbonyl]-4,4a,5,7,8,8a-hexahydropyrido[4,3-b][1,4]oxazin-3-one] | 12
22 | O=C1CO[C@H]2CCN(C(=O)N3CC(c4ccc(Oc5ccccc5Cl)nc4)C3)C[C@@H]2N1 (single isomer, unassigned) [Example 19, (−)- or (+)-trans-6-[3-[6-(2-Chlorophenoxy)-3-pyridyl]azetidine-1-carbonyl]-4,4a,5,7,8,8a-hexahydropyrido[4,3-b][1,4]oxazin-3-one] | 32
23 | O=C1CO[C@@H]2CCN(C(=O)N3CCC(C(c4ccc(F)cc4)c4ccc(F)cc4)CC3)C[C@H]2N1 (single isomer, unassigned) [Example 24, (+)- or (−)-trans-6-[4-[Bis(4-fluorophenyl)methyl]piperidine-1-carbonyl]-4,4a,5,7,8,8a-hexahydropyrido[4,3-b][1,4]oxazin-3-one] | 208
24 | O=C1CO[C@H]2CCN(C(=O)N3CCC(C(c4ccc(F)cc4)c4ccc(F)cc4)CC3)C[C@@H]2N1 (single isomer, unassigned) [Example 25, (−)- or (+)-trans-6-[4-[Bis(4-fluorophenyl)methyl]piperidine-1-carbonyl]-4,4a,5,7,8,8a-hexahydropyrido[4,3-b][1,4]oxazin-3-one] | 5
